The target of test [1] is T1, Receptor-interacting serine/threonine-protein kinase 1 (Homo sapiens, UniProt Q13546).
T1 sequence (Q13546 whole entry): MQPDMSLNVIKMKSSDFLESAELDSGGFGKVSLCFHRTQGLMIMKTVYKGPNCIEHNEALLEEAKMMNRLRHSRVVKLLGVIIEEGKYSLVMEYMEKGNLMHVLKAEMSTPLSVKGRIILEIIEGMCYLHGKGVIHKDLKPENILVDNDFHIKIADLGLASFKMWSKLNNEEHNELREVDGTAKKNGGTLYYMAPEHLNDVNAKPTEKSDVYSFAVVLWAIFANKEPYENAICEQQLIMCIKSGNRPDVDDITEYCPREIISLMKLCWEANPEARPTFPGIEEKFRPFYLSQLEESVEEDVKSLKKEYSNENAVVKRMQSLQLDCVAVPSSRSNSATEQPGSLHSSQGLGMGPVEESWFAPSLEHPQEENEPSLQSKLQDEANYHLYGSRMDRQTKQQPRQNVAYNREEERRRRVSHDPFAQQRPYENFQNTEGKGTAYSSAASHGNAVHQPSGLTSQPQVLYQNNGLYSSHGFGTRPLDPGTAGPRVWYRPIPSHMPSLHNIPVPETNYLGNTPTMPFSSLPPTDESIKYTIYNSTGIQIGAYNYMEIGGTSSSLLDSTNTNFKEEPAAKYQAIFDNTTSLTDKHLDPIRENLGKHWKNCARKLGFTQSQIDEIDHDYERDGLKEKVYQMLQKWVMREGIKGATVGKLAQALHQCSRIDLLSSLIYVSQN

Test [2] relates to HT-22. Description: cells. The conditions noted are these: Mus musculus, HT-22, 24 h.
In test [3] the test system is MEF. Description: cells. The conditions noted are these: Mus musculus, 24 h.
Test [4] deals with L929. Nature of the test: cells. Particulars: Mus musculus.

By IC50 is commonly meant the midpoint of a concentration-inhibition curve. Low readings indicate greater potency, high ones weaker potency. On to `O=C(c1cc2c(-c3ccc(F)cc3)cccc2s1)N1CCOCC1`, for which, in test [1], the IC50 amounted to 110 nM. This counts as sub-micromolar.

As a reminder, the EC50 is the concentration needed to bring the measured effect to its halfway point. Lower therefore signals higher potency in that assay. For `CC(C)(C)c1cc(NC(=O)Nc2ccc(-c3cn4c(n3)sc3cc(OCCN5CCOCC5)ccc34)cc2)no1` [QUIZARTINIB], the EC50 is 194 nM in test [2] and 66500 nM in test [3]. Turning to `CCCS(=O)(=O)Nc1ccc(F)c(C(=O)c2c[nH]c3ncc(-c4ccc(Cl)cc4)cc23)c1F` [VEMURAFENIB], in test [4], the EC50 worked out at 3750 nM. This lies in the single-digit micromolar range.

These data come from ChEMBL document CHEMBL5505961, “RIPK1 inhibitors: A key to unlocking the potential of necroptosis in drug development” (Eur J Med Chem, 2024).
